{
  "source": "paper PMC4222603",
  "about": "“Dual inhibition of HIV-1 replication by integrase-LEDGF allosteric inhibitors is predominant at the post-integration stage” (Retrovirology, 2013)",
  "key": {"[1]": {"target": "T1, IN-CCD/LEDGF-IBD interaction (Human immunodeficiency virus type 1 group M subtype B, UniProt P12497, F1332K)", "T1 construct": "cloning the integrase region (residues 50 to 202, encoding the catalytic core domain); made in house", "experiment": "HTRF-based CCD-IBD interaction assay", "format": "binding, HIV-1", "conditions": "Table 1", "excerpt": "All HTRF® conjugated monoclonal antibodies were purchased from Cisbio Bioassays."}, "HIV-1 NL4-3": {"test_system": "HIV-1 NL4-3", "experiment": "Antiviral assay in MT-4 cells, multiple-round infection, CellTiter-Glo", "format": "cell-based", "experimental": "MT-4 cells growing exponentially at the density of 10^6/mL were infected with HIV-1 strain NL4-3 at a MOI (multiplicity of infection) of 0.001 for 2 h. The cells were washed with PBS and aliquoted, using 100 μL fresh complete RPMI, into 96-well white plates (Corning) in the presence of different concentrations of compounds."}, "[2]": {"test_system": "NL4-3 Protease L10R, M46I, L63P, V82T, I84V", "experiment": "Antiviral assay on PI-resistant virus", "format": "cell-based, HIV-1", "conditions": "ratio EC50 resistant virus / wt virus"}, "NL4-3 RT K103N, Y181C": {"test_system": "NL4-3 RT K103N, Y181C", "experiment": "Antiviral assay on NNRTI-resistant virus", "format": "cell-based, HIV-1", "conditions": "ratio EC50 resistant virus / wt virus"}, "[3]": {"test_system": "NL4-3 Integrase G140S, Q148H", "experiment": "Antiviral assay on INSTI-resistant virus", "format": "cell-based, HIV-1", "conditions": "ratio EC50 resistant virus / wt virus"}, "[4]": {"test_system": "NL4-3 HIV-1 virus bearing the T174I mutation in IN", "experiment": "microbe, parasite or virus in culture", "format": "cell-based", "conditions": "Human immunodeficiency virus 1, NL43, read-out: EC50 on NL4-3 IN T174I mutant"}, "[5]": {"target": "T2, IN 3′ processing activity (Human immunodeficiency virus type 1 group M subtype B, UniProt P12497)", "T2 construct": "were carried out at 37°C with the full-length HIV-1 IN", "experiment": "IN 3′ processing radioactive assay", "format": "biochemical, HIV-1", "conditions": "0.01 to 100 μM", "excerpt": "Sequences of the different oligonucleotides (ODN) substrates are U5B: 5′-[…]-3′, U5A: 5′- […]-3′ and U5B-2: 5′-[…]-3′. ODNs were purchased from Eurogentec and further purified by electrophoresis in a denaturing 16% acrylamide/urea gel. For activity assays, ODNs (U5B and U5B-2) were radiolabelled with T4 polynucleotide kinase (New England Biolabs) and γ[^32-P]ATP (3000 Ci/mmol) (Amersham), and purified on a Sephadex G-10 column (GE Healthcare). Double-stranded ODNs (U5B with U5A and U5B-2 with U5A used for 3′-processing and strand transfer reactions, respectively) were obtained by mixing equimolar amounts of complementary strands in the presence of 100 mM NaCl.\nIN activity assays – 3′-processing, strand transfer – were carried out at 37°C with the full-length HIV-1 IN, in a buffer containing 10 mM HEPES (pH 7.2), 1 mM DTT, 7.5 mM MgCl2 in the presence of 6.25 nM DNA (3′-processing) or 12.5 nM DNA (strand transfer) as described previously. For negative control, 100 mM Na2EDTA was added to the reaction before incubation. Products were separated by electrophoresis in denaturing 16% acrylamide/urea gels. Gels were analysed with a Molecular Dynamics STORM phosphoimager and quantified with ImageQuant™ 4.1 software."}, "IN NL4-3 wt": {"target": "T3, IN NL4-3 wt (Human immunodeficiency virus type 1 group M subtype B, UniProt P12497)", "T3 construct": "loaded on a Superdex 200 16/600 PG column (for full length IN); made in house", "parameters": "species or system HIV-1", "conditions": "pre-incubation with 100 μM compound", "description": "SEC was performed with a Superdex 200 10/300 GL column (GE Healthcare) using a flow-rate of 0.4 mL/min in buffer containing 50 mM HEPES, pH 7.5, 1 M NaCl, 7 mM CHAPS, 5 mM MgCl2, 10 mM DTT, 10% glycerol at room temperature. […] Protein elution was monitored at 280 nm."}, "[6]": {"test_system": "VSV-G-pseudotyped HIV-1 Δenv-Luc NL4-3", "experiment": "Time-of-addition experiment, single-round infection of MT4 cells", "format": "cell-based", "conditions": "25 μM (saturating)"}, "HIV-1 NL4-3 wt": {"test_system": "HIV-1 NL4-3 wt", "format": "cell-based"}, "viral protease": {"target": "viral protease (Human immunodeficiency virus type 1 group M subtype B, UniProt P12497)", "experiment": "Viral protease inhibition (unpublished data)", "format": "biochemical, HIV-1"}, "IN-CCD wt": {"target": "IN-CCD wt (Human immunodeficiency virus type 1 group M subtype B, UniProt P12497, F1332K)"}},
  "note": "Where two headings read alike, the source gives them in different places.",
  "data": [
    {"smiles": "Cc1nc2c(c(-c3ccc4c(c3)CCCO4)c1C(OC(C)(C)C)C(=O)O)CCCC2", "note": "(centres unmarked) [Mut101, 2-(tert-butoxy)-2-[4-(3,4-dihydro-2H-1-benzopyran-6-yl)-2-methyl-5,6,7,8-tetrahydroquinolin-3-yl]acetic acid]", "values": [
      {"measurement": "IC50", "setting": "[1]", "value": 230, "unit": "nM"},
      {"measurement": "EC50", "setting": "HIV-1 NL4-3; Human immunodeficiency virus 1, NL43, MT4, Table 1, read-out: NL4-3 EC50 (MT4 assays)", "value": 540, "unit": "nM"},
      {"measurement": "EC50", "setting": "HIV-1 NL4-3; Human immunodeficiency virus 1, NL43, MT4, Table 3, mean of two independent experiments, read-out: EC50 NL4-3 WT", "value": 470, "unit": "nM"},
      {"measurement": "EC50", "setting": "HIV-1 NL4-3; Human immunodeficiency virus 1, NL43, MT4 cells, mean of six independent experiments, read-out: NL4-3 EC50 Multiple-round", "value": "490 ± 40", "unit": "nM"},
      {"measurement": "EC50 fold change PI", "setting": "[2]", "value": 1},
      {"measurement": "EC50 fold change NNRTIs", "setting": "NL4-3 RT K103N, Y181C", "value": 1},
      {"measurement": "EC50 fold change INSTIs", "setting": "[3]", "value": 1},
      {"measurement": "EC50", "setting": "[4]", "value": "> 50000", "unit": "nM"},
      {"measurement": "Maximum inhibition of IN 3′ processing", "setting": "[5]", "value": "25-30%"},
      {"measurement": "Effect on IN wt oligomerization state (SEC)", "setting": "IN NL4-3 wt", "value": "higher IN oligomerization state"},
      {"measurement": "Behaviour in time-of-addition experiment", "setting": "[6]", "value": "behaved as an inhibitor of integration"},
      {"measurement": "Infectivity of NL4-3 wt virus produced in presence of compound", "setting": "HIV-1 NL4-3 wt", "value": "inactivated"},
      {"measurement": "Inhibition of viral protease", "setting": "viral protease", "value": "does not inhibit viral protease"},
      {"measurement": "Kd", "setting": "IN-CCD wt", "value": 120, "unit": "nM"}
    ]}
  ]
}
